This note sets out measurements from PubChem BioAssay (NCI).

“And” between values parts separate entries of the source, which are not always exact repeats. Identical values can stand only once.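 Cells were grown in 96-well plates and exposed to each compound for 48 hours at five concentrations; endpoints were interpolated linearly between bracketing concentrations, or set to the highest concentration if not reached. At the GI50, growth is halved. TGI: concentration producing complete growth inhibition.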

Test systems include HCT-116 colon; CCRF-CEM leukemia; CAKI-1 renal; SF-295 CNS; SNB-19 CNS; M14 melanoma; EKVX NSCLC; NCI-H226 lung; SR leukemia; OVCAR-3 ovarian.
Common to all, as to assay: NCI anticancer screen, dose series, 48 h

`CCN(CC)CCC(=O)Nc1ccc(Cn2nnc3c2C(=O)c2nnn(Cc4ccc(NC(=O)CCN(CC)CC)cc4)c2C3=O)cc1`: the GI50 is 0.283 µM in the assay with HCT-116 colon; 0.24 µM in the assay with CCRF-CEM leukemia; over 71.1 µM in the assay on CAKI-1 renal; 1.93 µM with SF-295 CNS; 0.186 µM in the assay on SNB-19 CNS; 1.49 µM with M14 melanoma. Also, the GI50 in the assay with EKVX NSCLC is 1.54 µM; with NCI-H226 lung it was 1.51 µM; in the assay on SR leukemia, 0.507 µM; with OVCAR-3 ovarian it was 0.265 µM. In addition, the TGI was 1.12 µM in the assay on HCT-116 colon; over 100 µM in the assay on CAKI-1 renal; 5.33 µM in the assay on SF-295 CNS; 0.373 µM with SNB-19 CNS; 3.43 µM in the assay on M14 melanoma; 3.05 µM in the assay on EKVX NSCLC. The TGI in the assay with NCI-H226 lung was found to be 3.46 µM; in the assay on SR leukemia, 5 µM; with OVCAR-3 ovarian, 0.778 µM.

For the compound `COc1ccc2c(c1O)[C@@]13C=C(O)C(=O)C=C1[C@@H](C2)N(C)CC3`, the TGI with HCT-116 colon, with CCRF-CEM leukemia, in the assay on CAKI-1 renal, in the assay with SF-295 CNS, in the assay with SNB-19 CNS and with M14 melanoma was over 100 µM throughout. The TGI in the assay on EKVX NSCLC, in the assay with NCI-H226 lung, in the assay on SR leukemia and in the assay on OVCAR-3 ovarian was over 100 µM each time.

As to `COc1ccc(S(=O)(=O)N/N=C/C(=O)O)cc1`, the TGI was 1030 µM with HCT-116 colon; 712 µM in the assay with CCRF-CEM leukemia; 1230 µM with CAKI-1 renal; 1070 µM in the assay on SF-295 CNS; over 1250 µM in the assay with SNB-19 CNS; over 1250 µM in the assay on M14 melanoma. The TGI with EKVX NSCLC is over 1250 µM; in the assay with NCI-H226 lung, over 1220 µM; with SR leukemia, 603 µM; in the assay with OVCAR-3 ovarian, 1160 µM.

Turning to `O=C1c2c(O)cccc2C(C(=O)CCCCC(=O)C2c3cccc(O)c3C(=O)c3c(O)cccc32)c2cccc(O)c21`, the GI50 was 1.93 µM in the assay on HCT-116 colon; 1.2 µM with CCRF-CEM leukemia; 3.24 µM in the assay with CAKI-1 renal; 0.672 µM in the assay on SF-295 CNS; 0.529 µM with SNB-19 CNS; 1.75 µM with M14 melanoma. The GI50 in the assay with EKVX NSCLC was 1.55 µM; with NCI-H226 lung it was 1.1 µM; with SR leukemia it was 1.41 µM; in the assay with OVCAR-3 ovarian it was 1.39 µM. Moreover, the TGI in the assay with HCT-116 colon was 2.1 µM and 6.82 µM; in the assay on CCRF-CEM leukemia, 2.65 µM and 2.61 µM; in the assay on CAKI-1 renal, 8.43 µM and 9.38 µM; with SF-295 CNS, 4.57 µM and 1.49 µM; in the assay with SNB-19 CNS, 1.35 µM and 1.89 µM; in the assay on M14 melanoma it was 2.54 µM and 5.03 µM. The TGI in the assay on EKVX NSCLC is 1.64 µM and 3.68 µM; in the assay on NCI-H226 lung, 2.27 µM and 2.89 µM; with SR leukemia it was 25 µM and 2.87 µM; with OVCAR-3 ovarian, 1.3 µM and 2.53 µM.

Regarding `COc1ccc2nc3ccc(OC)cc3c(SCCCN)c2c1`, the GI50 in the assay with HCT-116 colon was 3.21 µM; in the assay with CCRF-CEM leukemia, 1.76 µM; in the assay on CAKI-1 renal, 9.79 µM; in the assay on SF-295 CNS it was 18.3 µM; in the assay on SNB-19 CNS, 14.4 µM; in the assay with M14 melanoma, 8.48 µM. Moreover, the GI50 with EKVX NSCLC is 15.9 µM; with NCI-H226 lung, 19.2 µM; in the assay with SR leukemia, 1.54 µM; with OVCAR-3 ovarian it was 2.73 µM. Besides, the TGI with HCT-116 colon came to 12.6 µM; with CCRF-CEM leukemia, 4.11 µM; with CAKI-1 renal, 26 µM; in the assay on SF-295 CNS it was 38.7 µM; with SNB-19 CNS, 36.7 µM; in the assay with M14 melanoma it was 31.1 µM. Also, the TGI stood at 35.6 µM in the assay on EKVX NSCLC, 65.7 µM in the assay on NCI-H226 lung, 3.64 µM in the assay on SR leukemia and 6.88 µM in the assay with OVCAR-3 ovarian.

`O=C(Cc1nc2ccc(C(=O)c3ccccc3)cc2[nH]c1=O)C(=O)Nc1ccccc1[N+](=O)[O-]`: the TGI with HCT-116 colon, with CCRF-CEM leukemia, in the assay on CAKI-1 renal, with SF-295 CNS, with M14 melanoma and with EKVX NSCLC was over 100 µM each time. Also, the TGI in the assay with NCI-H226 lung, with SR leukemia and in the assay on OVCAR-3 ovarian was over 100 µM in each case.

In the case of `C/C(=C(/c1ccc(O)cc1)c1ccc(OCCN2CCCC2)cc1)c1ccccc1`, the GI50 in the assay with HCT-116 colon is 2.92 µM; with CCRF-CEM leukemia, 3.2 µM; with CAKI-1 renal, 3.02 µM; in the assay on SF-295 CNS, 1.95 µM; with SNB-19 CNS, 2.95 µM; with M14 melanoma it was 1.88 µM. Besides, the GI50 with EKVX NSCLC is 2.46 µM; in the assay on NCI-H226 lung, 11.3 µM; in the assay on SR leukemia, 1.93 µM; with OVCAR-3 ovarian, 5.66 µM. The TGI with HCT-116 colon is 10.1 µM; in the assay on CCRF-CEM leukemia, 9.85 µM; in the assay with CAKI-1 renal, 13.9 µM; in the assay on SF-295 CNS it was 4.19 µM; with SNB-19 CNS it was 8.1 µM; in the assay on M14 melanoma it was 4.08 µM. Besides, the TGI with EKVX NSCLC came to 11.5 µM; in the assay on NCI-H226 lung, 29.8 µM; in the assay with SR leukemia it was 5.75 µM; in the assay on OVCAR-3 ovarian it was 18.1 µM.

`CCCC/C(=N\N=C(N)N)c1ccc(F)cc1`: the GI50 with HCT-116 colon is 3.51 µM; in the assay with CCRF-CEM leukemia, 2.23 µM; in the assay with CAKI-1 renal it was 3.44 µM; in the assay on SF-295 CNS it was 2.84 µM; in the assay on SNB-19 CNS, 2.64 µM; in the assay with M14 melanoma it was 2.35 µM. Further, the GI50 is 4.5 µM in the assay with EKVX NSCLC, 2.78 µM in the assay on NCI-H226 lung, 0.481 µM in the assay on SR leukemia and 2.9 µM in the assay with OVCAR-3 ovarian. Also, the TGI in the assay on HCT-116 colon was 14.6 µM; in the assay on CCRF-CEM leukemia, 11.7 µM; with CAKI-1 renal, 15.1 µM; in the assay with SF-295 CNS, 12.3 µM; in the assay with SNB-19 CNS it was 13.8 µM; in the assay on M14 melanoma it was 10.4 µM. The TGI in the assay on EKVX NSCLC amounted to 25.5 µM; in the assay on NCI-H226 lung, 13.3 µM; in the assay with SR leukemia, 11.9 µM; in the assay with OVCAR-3 ovarian, 9.5 µM.

Regarding `Cc1ccc(NC(=O)CCC(=O)C2CC(=O)CC/C2=N\NC(=O)c2cc3ccccc3cc2O)cc1C` (stereo not drawn), the TGI in the assay with HCT-116 colon was over 100 µM; in the assay with CCRF-CEM leukemia it was 58.3 µM; with CAKI-1 renal, over 100 µM; in the assay with SF-295 CNS, over 100 µM; in the assay on SNB-19 CNS, over 100 µM; in the assay with M14 melanoma, 88.9 µM. In addition, the TGI in the assay with EKVX NSCLC worked out at 99.6 µM; in the assay on NCI-H226 lung, 97.2 µM; in the assay with SR leukemia, 97.4 µM; in the assay on OVCAR-3 ovarian, 45.6 µM.
